Tested on: patients with treatment-resistant major depressive disorder
Test: Clinical trial in treatment-resistant major depressive disorder: symptom scales (MADRS, PGI-S, PGI-I, C-SSRS, BPRS)
Format: in vivo, human
Conditions: for PGI-I: 1, Very much improved, 2, Much improved, to 7, Very much worse; for MADRS suicidal thoughts item: ranges from 0 to 6; for BPRS Unusual thought content / BPRS Somatic concern / BPRS Tension / BPRS Guilt feelings / BPRS Depressive Mood / BPRS Anxiety: scale of 1-7; for PGI-S: 1, Normal, not at all ill to 7, Extremely ill; for MADRS: score 0 to 60; for BPRS (total): 18 symptoms each rated 1-7; for C-SSRS Suicidal Ideation: whether any of the suicidal ideation items were present
Method: A clinical trial was performed in which 5-MeO-DMT free base (purity not less than 99%) was administered to patients with treatment-resistant major depressive disorder (TRD). The objectives of the study were to assess the safety and tolerability, the dose-related psychedelic effects and the effects on various measures of depression of single-day dosing of 5-MeO-DMT. The trial was reviewed and approved by the relevant national competent authority and local medical ethics committee. Patients recruited into the trial had to meet the Diagnostic and Statistical Manual of Mental Disorders-Fifth Edition (DSM-5) diagnostic criteria for single-episode or recurrent major depressive disorder and had to be treatment-resistant, both aspects as evaluated by a psychiatrist or registered psychologist. Patients who were using any psychoactive medication or substance (such as anti-depressive medication) had to discontinue such medication or substance and had to observe a wash-out period before the 5-MeO-DMT administration. On the administration day, a single dose of 12 mg 5-MeO-DMT was administered to the patients via a single inhalation as described in Example 1A. Patients were closely monitored for 3.5 hours after administration, with additional follow-up visits 1 day and 7 days after dosing. Various safety related measures (e.g., adverse event reporting, safety laboratory analyses, vital signs, electrocardiogram (ECG), Clinician Administered Dissociative States Scale (CADSS), Psychomotor Vigilance Test (PVT), Digit Symbol Substitution Test (DSST)), measures of the intensity of the psychedelic effects (e.g., Peak Psychedelic Experience Questionnaire (PPEQ), Altered States of Consciousness (ASC) Questionnaire, Mystical Experience Questionnaire (MEQ30), subjective description of the psychedelic experience), measures of depression severity (Montgomery-Åsberg Depression Rating Scale (MADRS), Patient's Global Impression of Severity scale (PGI-S), Patient's Global Impression of Improvement scale (PGI-I)), and additional psychological measures (e.g., Columbia-Suicide Severity Rating Scale (C-SSRS), Brief Psychiatric Rating Scale (BPRS)) were recorded at different time points. Psychological support via a psychologist and/or psychiatrist was available to the patients throughout the study, but no specific psychotherapy was applied, and no additional psychoactive medication was provided.
Two patients with major depressive disorder diagnosed by a psychiatrist according to DSM-5 diagnostic criteria were recruited into the study (Example 2, Table 1). The patients were considered treatment-resistant because they had not shown adequate improvement to at least two adequate courses of pharmacological therapy in the current episode of depression.

[1] = Patient 1, 2 hours after 12 mg inhaled
[2] = Patient 1, 2 hours after 12 mg inhaled, baseline 1
[3] = Patient 1, 2 hours after 12 mg inhaled, baseline 5
[4] = Patient 1, 1 day after 12 mg inhaled
[5] = Patient 1, 1 day after 12 mg inhaled, baseline 1
[6] = Patient 1, 1 day after 12 mg inhaled, baseline 5
[7] = Patient 1, 7 days after 12 mg inhaled
[8] = Patient 1, 7 days after 12 mg inhaled, baseline 1
[9] = Patient 1, 7 days after 12 mg inhaled, baseline 5
[10] = Patient 2, 2 hours after 12 mg inhaled
[11] = Patient 2, 2 hours after 12 mg inhaled, baseline 5
[12] = Patient 2, 1 day after 12 mg inhaled
[13] = Patient 2, 1 day after 12 mg inhaled, baseline 5
[14] = Patient 2, 7 days after 12 mg inhaled
[15] = Patient 2, 7 days after 12 mg inhaled, baseline 5
[16] = both patients, all assessment time points after 12 mg inhaled
[17] = single dose of 12 mg via inhalation

COc1ccc2[nH]cc(CCN(C)C)c2c1 [5-MeO-DMT, 5-methoxy-N,N-dimethyltryptamine]
% MADRS change vs. baseline [1]: −68% | PGI-I [1]: 1 | MADRS suicidal thoughts item [2]: 0 | BPRS Unusual thought content [2]: 1 | BPRS Somatic concern (Patient 1, 2 hours after 12 mg inhaled, baseline 3): 2 | BPRS Tension (Patient 1, 2 hours after 12 mg inhaled, baseline 4): 3 | PGI-S [3]: 1 | BPRS Guilt feelings [3]: 1 | BPRS Depressive Mood (Patient 1, 2 hours after 12 mg inhaled, baseline 6): 2 | BPRS Anxiety (Patient 1, 2 hours after 12 mg inhaled, baseline 7): 2 | MADRS (Patient 1, 2 hours after 12 mg inhaled, baseline 31): 10 | BPRS (total) (Patient 1, 2 hours after 12 mg inhaled, baseline 42): 27 | C-SSRS Suicidal Ideation (Patient 1, 2 hours after 12 mg inhaled, baseline Yes): No | % MADRS change vs. baseline [4]: −74% | PGI-I [4]: 1 | MADRS suicidal thoughts item [5]: 0 | BPRS Unusual thought content [5]: 1 | BPRS Somatic concern (Patient 1, 1 day after 12 mg inhaled, baseline 3): 1 | BPRS Tension (Patient 1, 1 day after 12 mg inhaled, baseline 4): 1 | PGI-S [6]: 1 | BPRS Guilt feelings [6]: 1 | BPRS Depressive Mood (Patient 1, 1 day after 12 mg inhaled, baseline 6): 1 | BPRS Anxiety (Patient 1, 1 day after 12 mg inhaled, baseline 7): 1 | MADRS (Patient 1, 1 day after 12 mg inhaled, baseline 31): 8 | BPRS (total) (Patient 1, 1 day after 12 mg inhaled, baseline 42): 18 | C-SSRS Suicidal Ideation (Patient 1, 1 day after 12 mg inhaled, baseline Yes): No | % MADRS change vs. baseline [7]: −90% | PGI-I [7]: 1 | MADRS suicidal thoughts item [8]: 0 | BPRS Unusual thought content [8]: 1 | BPRS Somatic concern (Patient 1, 7 days after 12 mg inhaled, baseline 3): 1 | BPRS Tension (Patient 1, 7 days after 12 mg inhaled, baseline 4): 1 | PGI-S [9]: 1 | BPRS Guilt feelings [9]: 1 | BPRS Depressive Mood (Patient 1, 7 days after 12 mg inhaled, baseline 6): 1 | BPRS Anxiety (Patient 1, 7 days after 12 mg inhaled, baseline 7): 1 | MADRS (Patient 1, 7 days after 12 mg inhaled, baseline 31): 3 | BPRS (total) (Patient 1, 7 days after 12 mg inhaled, baseline 42): 18 | C-SSRS Suicidal Ideation (Patient 1, 7 days after 12 mg inhaled, baseline Yes): No | % MADRS change vs. baseline [10]: −73% | PGI-I [10]: 2 | MADRS suicidal thoughts item (Patient 2, 2 hours after 12 mg inhaled, baseline 1): 0 | BPRS Tension (Patient 2, 2 hours after 12 mg inhaled, baseline 3): 1 | BPRS Somatic concern (Patient 2, 2 hours after 12 mg inhaled, baseline 4): 1 | PGI-S [11]: 1 | BPRS Anxiety [11]: 2 | BPRS Depressive Mood [11]: 3 | BPRS Guilt feelings [11]: 1 | BPRS Unusual thought content (Patient 2, 2 hours after 12 mg inhaled, baseline 6): 1 | MADRS (Patient 2, 2 hours after 12 mg inhaled, baseline 33): 9 | BPRS (total) (Patient 2, 2 hours after 12 mg inhaled, baseline 45): 26 | C-SSRS Suicidal Ideation (Patient 2, 2 hours after 12 mg inhaled, baseline No): No | % MADRS change vs. baseline [12]: −85% | PGI-I [12]: 2 | MADRS suicidal thoughts item (Patient 2, 1 day after 12 mg inhaled, baseline 1): 1 | BPRS Tension (Patient 2, 1 day after 12 mg inhaled, baseline 3): 1 | BPRS Somatic concern (Patient 2, 1 day after 12 mg inhaled, baseline 4): 1 | PGI-S [13]: 1 | BPRS Anxiety [13]: 1 | BPRS Depressive Mood [13]: 1 | BPRS Guilt feelings [13]: 1 | BPRS Unusual thought content (Patient 2, 1 day after 12 mg inhaled, baseline 6): 1 | MADRS (Patient 2, 1 day after 12 mg inhaled, baseline 33): 5 | BPRS (total) (Patient 2, 1 day after 12 mg inhaled, baseline 45): 19 | C-SSRS Suicidal Ideation (Patient 2, 1 day after 12 mg inhaled, baseline No): No | % MADRS change vs. baseline [14]: −85% | PGI-I [14]: 2 | MADRS suicidal thoughts item (Patient 2, 7 days after 12 mg inhaled, baseline 1): 0 | BPRS Tension (Patient 2, 7 days after 12 mg inhaled, baseline 3): 1 | BPRS Somatic concern (Patient 2, 7 days after 12 mg inhaled, baseline 4): 1 | PGI-S [15]: 1 | BPRS Anxiety [15]: 1 | BPRS Depressive Mood [15]: 1 | BPRS Guilt feelings [15]: 1 | BPRS Unusual thought content (Patient 2, 7 days after 12 mg inhaled, baseline 6): 1 | MADRS (Patient 2, 7 days after 12 mg inhaled, baseline 33): 5 | BPRS (total) (Patient 2, 7 days after 12 mg inhaled, baseline 45): 18 | C-SSRS Suicidal Ideation (Patient 2, 7 days after 12 mg inhaled, baseline No): No | standard criteria for MADRS remission (MADRS total score equal or less than 10) [16]: fulfilled | standard criteria for MADRS response (at least 50% improvement from baseline) [16]: fulfilled | time to clinical remission after a single 5-MeO-DMT administration [17]: ≤ 2 h | time to clinical response after 5-MeO-DMT administration [17]: ≤ 2 h

Source: patent US20240307350A1, “5-METHOXY-N,N-DIMETHYLTRYPTAMINE (5-MEO-DMT) FOR TREATING DEPRESSION” (GH RESEARCH IRELAND LIMITED, priority 2019, published 2024)
